Reference: patent US11160784B1, “Treatment of brain metastases using organonitro compound combination therapy” (EpicentRx, Inc., priority 2015, dated 2021)

Legend:
[1] = test system: brain metastases; assay: Treatment of two human patients suffering from brain metastases with ABDNAZ in combination with whole brain radiation therapy; format: in vivo
Method: Two human patients suffering from brain metastases were treated according to the protocol described in Part I below using ABDNAZ in combination with whole brain radiation therapy.
(§1) ABDNAZ was administered intravenously in a formulation containing ABDNAZ, polyethylene glycol having a number-average molecular weight of 400 g/mol (PEG-400), water for injection, and NN-dimethylacetamide. A single dosage of ABDNAZ was 5 mg/m^2. During radiation therapy, (i) subjects were treated in the supine position, (ii) adequate immobilization and reproducibility of position was ensured using thermoplastic mask, (iii) the target volume included the whole brain, per the treating radiation oncologist, (iv) the lens of the eye was excluded from the beam using shielding or by beam collimation, (v) the dose of radiation is specified at central axis at mid-plane, (vi) whole brain radiotherapy was delivered with a daily fraction size of 3.0 Gy per fraction given 5 days a week for a total dose of 30 Gy, and (vii) radiation therapy was delivered using photon beam energies of 6 MV and an opposed lateral technique, where all fields are treated during each treatment session.

[2] = test system: brain metastases; assay: Treatment of thirteen additional human patients suffering from brain metastases with ABDNAZ in combination with whole brain radiation therapy; format: in vivo; conditions: ABDNAZ 1.25 to 8.4 mg/m^2 IV + WBRT 30 Gy
Method: Thirteen human patients suffering from brain metastases were treated according to the protocol described in Part I below using ABDNAZ in combination with whole brain radiation therapy.
as §1, with “intravenously at a dosage” for “intravenously”, “the range” for “a formulation containing ABDNAZ, polyethylene glycol having a number-average molecular weight”, “1.25 mg/m^2 to 8.4” for “400 g/mol (PEG-400), water for injection, and NN-dimethylacetamide. A single dosage of ABDNAZ was 5”

[3] = test system: SCCVII tumor; assay: Impact of time between administration of ABDNAZ and radiation therapy on tumor growth delay; format: in vivo, mice; conditions: ABDNAZ 15 mg/kg IP single dose at -24 h, -2 h, concurrent, +2 h or +24 h; single local 7 Gy; FIG. 1
Method: The impact of the time interval between administration of ABDNAZ and radiation therapy on tumor growth delay was evaluated in mice having a SCCVII tumor. Experimental procedures and results are described below.
Mice having a SCCVII tumor were treated with radiation therapy and ABDNAZ, where the length of time between administration of radiation therapy and ABDNAZ was varied. Radiation therapy was administered as a single local dose of 7 Gy of radiation. ABDNAZ was dosed in 5 groups of mice at 15 mg/kg IP as a single dose at one of the following time points: 24 hours prior to radiation therapy, 2 hours prior to radiation therapy, concurrent with radiation therapy, 2 hours after radiation therapy, or 24 hours after radiation therapy.

[4] = first patient, four weeks after completion of ABDNAZ + WBRT

O=C(CBr)N1CC([N+](=O)[O-])([N+](=O)[O-])C1 [ABDNAZ]
k^trans by dynamic contrast-enhanced brain MRI ([1]; first patient (melanoma brain metastases), 24 hours after first dose of ABDNAZ 5 mg/m^2 IV): decrease in k^trans in 4 of 5 lesions | size of new lesion discovered ([1]; first patient, 4 months after completion of ABDNAZ + WBRT, possibly seeding from systemic disease): 5 mm | tolerability ([1]; first patient, ABDNAZ 5 mg/m^2 IV + WBRT 30 Gy): well-tolerated with mild, transient infusion site pain, and without any signs of systemic or neurologic toxicity | visual symptoms ([1]; first patient, by the end of treatment with ABDNAZ + WBRT): improved visual symptoms with near resolution of visual field-deficit | edema associated with lesions ([1]; first patient, four months after completion of ABDNAZ + WBRT): decrease in associated edema of all lesions | physical function, Barthel ADL index [1, 4]: unchanged from baseline | size of brain lesions by contrasted brain MRI [1, 4]: decrease in the size of the largest right and left occipital masses | visual symptoms ([1]; first patient, within 48 hours of receiving the first dose of radiation therapy, ABDNAZ 5 mg/m^2 IV + WBRT): began to improve | number of sub-centimeter metastases with complete disappearance ([1]; second patient, 3 months after end of ABDNAZ + WBRT): 3 | lesion response on serial re-imaging ([1]; second patient, at least 18 brain metastases at baseline, ABDNAZ + WBRT): response in all 18 visualized lesions | infusion site pain ([1]; second patient, during treatment): no significant infusion site pain | k^trans by DCE-MRI ([1]; second patient, largest evaluable lesion, 24 hours after first administration of ABDNAZ): slight reduction in k^trans | physical function, Barthel ADL index ([1]; second patient, one month after end of ABDNAZ + WBRT): unchanged from baseline | adverse events [2]: No adverse events were observed | patients with decrease of at least 30% in sum of longest diameters of target lesions and absolute decrease of at least 5 mm in at least one target lesion [2]: Approximately 50% | tumor growth delay versus time interval between ABDNAZ and radiation therapy [3]: Maximum tumor growth delay occurred when ABDNAZ was administered minutes before or concomitant with radiation therapy
